Measurements from patent EP0166969A2, “Haemostyptic” (priority 1984, dated 1986).
“Also recorded” adds a separate entry of the source.

Experiments:
[1] = system: Rattenleber; assay: Bleeding time and blood loss in rats according to Ennen (1981), liver parenchymal bleeding; type: in vivo, Ratten; conditions: tested oral and IV, standard solutions suspended in 0,9% saline, route of the values not stated
Excerpt: (§1) Unter einem Hämostypticum versteht man Mittel zur Blutstillung, die sowohl die Blutungszeit als auch den Blutverlust bei mechanischen Verletzungen herabsetzen. Die Blutgerinnung ist ein in den letzten Jahren intensiv untersuchter komplexer Vorgang, der sich in verschiedenster Weise beeinflussen läßt. Die Blutstillung und der Blutverlust hängen wiederum in erster Linie vom Umfang und der Geschwindigkeit der Blutgerinnung ab, jedoch spielen hier auch noch weitere Faktoren mit hinein, die bisher noch nicht ausreichend untersucht und geklärt werden konnten. Eine besondere Schwierigkeit bei der Untersuchung von Hämostyptica ist die Erarbeitung von zuverlässigen und reproduzierbaren Versuchsbedingungen am Menschen und am Tier. Eine umfassende Zusammenstellung der bisher bekannten Methoden sowie die Beschreibung einer verbesserten Methode an der Ratte wird beschrieben in der Dissertation von Ennen 1981, am Institut für Pharmakologie, Toxikologie und Pharmazie der Tierärtzlichen Hochschule Hannover unter Leitung von Prof. Dr. K. Kaemmerer (Methodenbeitrag zur Bestimmung von Blutungszeit und Blutverlust bei Leberparenchymblutungen kleiner Versuchstiere). Im Rahmen dieser Untersuchungen wurden auch verschiedene bekannte Hämostasesysteme vergleichend untersucht. Zu den untersuchten Produkten gehörte auch das Hämostypticum Revici, welches von der Anmelderin seit Jahren vertrieben wird. […] Das Hämostypticum Revici enthält neben geringen Mengen von Zitronensäure, Wasserstoffperoxid und n-Butanol. Da bei der Anwendung des Hämostypticums Revici immer wieder schwankende und nicht immer reproduzierbare Ergebnisse beobachtet wurden, wurden eingehende Untersuchungen über die Wirksamkeit aller drei Komponenten und Gemische derselben auf ihre Wirksamkeit hin untersucht. Dabei dienten als Modelle in erster Linie die bereits von Ennen entwickelten Tiermodelle der Ratten sowie ähnliche Versuche an der Schweineleber. Die Untersuchungen wurden zusätzlich ausgedehnt auf mögliche Metaboliten und Zersetzungsprodukte der Zitronensäure, nämlich Cis-Aconitsäure, Acetondicarbonsäure und Itakonsäure.
Die Wirksamkeit der Substanzen wurde sowohl oral als auch IV getestet mit Standardlösungen suspendiert in 0,9%-iger Kochsalzlösung bei Ratten nach Ennen (1981). Gemessen wurden Blutungszeit und Blutverlust in % der Abnahme. Tributylcitrat ergab eine Abnahme der Blutungszeit von 27% und eine Abnahme des Blutverlustes von 44%. Die entsprechenden Werte für Trihexylcitrat lagen bei 20 bzw. 24%. Die Werte für Aconit-tributylester bei 22 bzw. 16% und für Tricarballylsäure-tributylester bei 29 bzw. 8%.

[2] = system: Schweineleber; assay: Comparative haemostyptic efficacy of components, mixtures and esters in rat models and pig liver; type: in vivo, Ratten; conditions: qualitative
Excerpt: as §1, with “Da bei der Anwendung des Hämostypticums Revici immer wieder schwankende und nicht immer reproduzierbare Ergebnisse beobachtet wurden, wurden eingehende Untersuchungen über die Wirksamkeit aller drei Komponenten und Gemische derselben auf ihre Wirksamkeit hin untersucht.” left out

[3] = Toxicity of the new esters (test not described); conditions: qualitative
[4] = system: Schweine; assay: Pig experiments: circulatory effect; type: in vivo; conditions: pigs; amount of n-Butanol present in Hämostypticum Revici, given alone
Excerpt: Bei den Schweineversuchen hat sich beispielsweise gezeigt, daß die im Hämostypticum Revici vorhandene Menge n-Butanol für sich allein schon zu Kreislaufdepressionen führt. […] Die Wirksamkeit kann daher nicht dadurch erklärt werden, daß das TBC im Körper zu Zitronensäure und n-Butanol gespalten wird.

[5] = system: Ratte; conditions: rat; Merck Index, 10th ed., no. 1513; cited from earlier work
[6] = Acute toxicity (LD50, oral tolerance) in the rat; type: in vivo; conditions: in vivo, applicant's own experiments
Method: (§2) Hierbei ist zu beachten, daß bei der Ratte als maximale Volumenbelastung 20 ml/kg gelten.

[7] = system: Ratte; assay: Acute toxicity (LD50, oral tolerance) in the rat; type: in vivo
Method: as §2

[8] = system: Ratte; conditions: rat, in vivo, iv
Method: as §2

Molecule | Abnahme der Blutungszeit [1] | Abnahme des Blutverlustes [1] | hämostyptische Wirksamkeit [2] | Toxizität [3] | other results
CCCCOC(=O)C=C(CC(=O)OCCCC)C(=O)OCCCC [Aconit-tributylester] | 22% | 16% | durchaus interessante und für die Praxis brauchbare Wirkung | niedriger Toxizität | 
O=C(O)CC(O)(CC(=O)O)C(=O)O [Zitronensäure] |  |  | praktisch wirkungslos |  | 
CCCCOC(=O)CC(CC(=O)OCCCC)C(=O)OCCCC [Tricarballylsäure-tributylester] | 29% | 8% | durchaus interessante und für die Praxis brauchbare Wirkung | niedriger Toxizität | 
CCCCO [n-Butanol] |  |  | eine gewisse hämostyptische Wirksamkeit; also recorded: einen gewissen Effekt |  | Kreislaufwirkung [4]: Kreislaufdepressionen; LD50 [5]: 4,36 g/kg
O=C(O)/C=C(/CC(=O)O)C(=O)O [Cis-Aconitsäure] |  |  | praktisch wirkungslos |  | 
CCCCOC(=O)CC(O)(CC(=O)OCCCC)C(=O)OCCCC [TBC, Tri-n-butylcitrat] | 27% | 44% |  |  | LD50 [6]: 20800 mg/kg; akute oder klinische manifeste Veränderungen ([7]; oral 10 ml/kg (printed as 10,4 mg/kg)): keinerlei akute oder klinische manifeste Veränderungen; akute oder klinische manifeste Veränderungen ([7]; oral 20 ml/kg (printed as 20,8 mg/kg)): keinerlei akute oder klinische manifeste Veränderungen; spontaner Exitus nach Infusion [8]: 19,4 ml/kg
C=C(CC(=O)O)C(=O)O [Itakonsäure] |  |  | praktisch wirkungslos |  | 
Wasserstoffperoxid [H202] |  |  | einen gewissen Effekt |  | 
CCCCCCOC(=O)CC(O)(CC(=O)OCCCCCC)C(=O)OCCCCCC [Trihexylcitrat] | 20% | 24% |  | niedriger Toxizität | 
O=C(O)CC(=O)CC(=O)O [Acetondicarbonsäure] |  |  | praktisch wirkungslos |  | 
